Patent US6441184B1, “Fused heteroaromatic glucokinase activators” (Hoffmann-LA Roche Inc., priority 2000, dated 2002)

Tested on: C57BL/6J mice
Experiment: Glucokinase activator in vivo screen protocol (blood glucose after oral dosing)
Details: administered orally, 50 mg/kg, C57BL/6J mice fasted two hours; active = significant (p<0.05) decrease in blood glucose vs vehicle for two consecutive time points
Protocol: Glucokinase Activator in vivo Screen Protocol
C57BL/6J mice are orally dosed via gavage with Glucokinase (GK) activator at 50 mg/kg body weight following a two hour fasting period. Blood glucose determinations are made five times during the six hour post-dose study period.
Mice (n=6) are weighed and fasted for a two hour period prior to oral treatment. GK activators are formulated at 6.76 mg/ml in Gelucire vehicle (Ethanol:Gelucire44/14:PEG400q.s. 4:66:30 v/w/v. Mice are dosed orally with 7.5 μL formulation per gram of body weight to equal a 50 mg/kg dose. Immediately prior to dosing, a pre dose (time zero) blood glucose reading is acquired by snipping off a small portion of the animals tail (−1 mm) and collecting 15 μL blood into a heparinized capillary tube for analysis. Following GK activator administration, additional blood glucose readings are taken at 1, 2, 4, and 6 hours post dose from the same tail wound. Results are interpreted by comparing the mean blood glucose values of six vehicle treated mice with six GK activator treated mice over the six hour study duration.

Row | SMILES | glucokinase activator in vivo activity
1 | CS(=O)(=O)c1ccc([C@@H](CC2CCCC2)C(=O)Nc2nc3ccccc3s2)cc1Cl [Example 19, N-Benzothiazol-2-yl-2(R)-(3-chloro-4-methanesulfonyl-phenyl)-3-cyclopentyl-propionamide] | excellent glucokinase activator in vivo activity
2 | CS(=O)(=O)c1ccc(C(CC2CCCC2)C(=O)Nc2nc3ccccc3[nH]2)cc1Cl (stereo not drawn) [Example 20, N-(1H-Benzoimidazol-2-yl)-2-(3-chloro-4-methanesulfonyl-phenyl)-3-cyclopentyl-propionamide] | excellent glucokinase activator in vivo activity
3 | CS(=O)(=O)c1ccc(C(CC2CCCC2)C(=O)Nc2ccc3ccccc3n2)cc1Cl (stereo not drawn) [Example 22, 2-(3-Chloro-4-methanesulfonyl-phenyl)-3-cyclopentyl-N-quinolin-2-yl-propionamide] | excellent glucokinase activator in vivo activity
